Laboratory results as given in patent publication US8981106B2, “Pyrimidinecarboxamides as CXCR2 modulators” (Syntrix Biosystems, Inc., priority 2009, dated 2015).

What follows are compounds tested against CXCR2 (Homo sapiens (Human), UniProt P25025) (assay: Inhibition of GROα-mediated intracellular calcium release in human neutrophils (FLIPR-3 Ca2+ mobilization)). Settings: human neutrophils, 25 nM GROα; read-out: IC50.
Assay type: cell-based
Protocol: In Tables 1-5, the IC50 or EC50 values were determined using the following assay. This assay measures intracellular calcium release via fluorescence as an indication of CXCR2 receptor activation by the physiologic agonist GROα. The assay is a Ca^2+ mobilization assay that measures changes in intracellular Ca^2+ with a FlexStation II scanning fluorometer using a FLIPR-3 Calcium Assay Kit (Molecular Devices, Sunnyvale, Calif.). The procedure is as follows:
1. Human neutrophils were suspended in HBSS^− (without Ca^2+ and Mg^2+) containing 10 mM HEPES and FLIPR Calcium 3 dye (3.1×10^7 cells in total volume 1.7 mL).
2. […] As controls, 2 μL of DMSO (1% final concentration) were added to other 2 tubes.
3. Cells were incubated for 30 min at 37° C.
4. After dye loading, tubes were centrifuged at 6,000 rpm for 1 min, supernatant was removed and cell pellet was re-suspended in 200 μL of HBSS^+ (with Ca^2+ and Mg^2+) containing 10 mM HEPES.
5. The compound or DMSO (control) was added again at the same concentrations that were used during cell loading.
6. The cell suspension was aliquoted into a 96-well Reading Plate (Corning) in a volume of 90 μL (10^5 cells/well). The Compound Plate contained physiologic agonist (GROα in HBSS^−) or HBSS^− (control).
9. The maximum change in fluorescence, expressed in arbitrary units over baseline (Max-Min) was used to determine the GROα response. […] Therapeutic Activity
Briefly, human neutrophils were suspended in HBSS^− (without Ca^2+ and Mg^2+) containing 10 mM HEPES and FLIPR Calcium 3 dye (3.1×10^7 cells in total volume 1.7 mL). […] As controls, 2 μL of DMSO (1% final concentration) were added to 2 other tubes. Cells were incubated for 30 min at 37° C. After dye loading, tubes were centrifuged at 6,000 rpm for 1 min, supernatant was removed and the cell pellet was re-suspended in 200 μL of HBSS^+ (with Ca^2+ and Mg^2+) containing 10 mM HEPES. The test compound or DMSO (control) was added again at the same concentrations that were used during cell loading. The cell suspension was aliquoted into a 96-well Reading Plate (Corning) in a volume of 90 μL (10^5 cells/well). The Compound Plate contained agonist (GROα in HBSS^−) or HBSS^− (control).
The maximum change in fluorescence, expressed in arbitrary units over baseline (Max-Min), was used to determine the GROα response.

Sequence of CXCR2 (P25025 whole entry): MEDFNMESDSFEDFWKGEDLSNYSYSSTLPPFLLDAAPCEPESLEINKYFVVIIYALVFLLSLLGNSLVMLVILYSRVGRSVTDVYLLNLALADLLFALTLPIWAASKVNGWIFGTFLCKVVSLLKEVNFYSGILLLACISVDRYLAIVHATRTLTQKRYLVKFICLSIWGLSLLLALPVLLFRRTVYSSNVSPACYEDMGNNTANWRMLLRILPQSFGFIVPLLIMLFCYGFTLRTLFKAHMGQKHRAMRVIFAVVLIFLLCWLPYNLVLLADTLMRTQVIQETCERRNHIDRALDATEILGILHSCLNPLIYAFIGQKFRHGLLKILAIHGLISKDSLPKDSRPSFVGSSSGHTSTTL

With `O=C(O)CN(C(=O)c1ccc(SCc2ccccc2B(O)O)nc1)c1ccc(F)cc1` [Compound 158] as the compound, how does the IC50 read?
Its IC50 is 1.99 ± 0.46 µM.

For `Cc1ccc(C(=O)CSc2ccc(C(=O)Nc3ccc(F)cc3)cn2)cc1` [Compound 85], which IC50 is on record?
The IC50 was > 10 µM.

For `O=C(Nc1ccc(F)cc1)c1ccc(SCc2ccc([N+](=O)[O-])cc2)nc1` [Compound 39], which IC50 is on record?
The IC50 was > 10 µM.

With `O=C(Nc1ccc(F)cc1)c1ccc(SCc2ccc(-n3cccc3)cc2)nc1` [Compound 31] as the compound, how does the IC50 read?
Its IC50 is > 10 µM.

Which IC50 does the source give for `O=C(Nc1ccc(F)cc1)c1ccc(SCC(=O)c2cc(-c3ccc(Cl)cc3)no2)nc1` [Compound 134] here?
The IC50 was > 10 µM.

`COC(=O)c1cccc(CSc2ccc(C(=O)Nc3ccc(F)cc3)cn2)c1` [Compound 22] was tested. Which IC50 did it give?
Its IC50 is > 5 µM.

`O=C(Nc1ccc(F)cc1)c1ccc(SCC(=O)c2csc3ccccc23)nc1` [Compound 126] was tested. Which IC50 did it give?
Its IC50 is > 5 µM.

Which IC50 does the source give for `O=C(Nc1ccc(O)cc1)c1ccc(SCc2ccccc2B(O)O)nc1` [Compound 163] here?
Its IC50 is 0.105 ± 0.044 µM.

For `CC1(C)OB(c2ccc(CSc3ccc(C(=O)Nc4ccc(F)cc4)cn3)cc2)OC1(C)C` [Compound 20], which IC50 is on record?
Its IC50 is 0.112 ± 0.067 µM.

Which IC50 does the source give for `O=C(Nc1ccc(F)cc1)c1ccc(SCc2ccc(-n3cccn3)cc2)nc1` [Compound 32] here?
The IC50 was > 10 µM.

For `O=C(Nc1ccc(F)cc1)c1ccc(SCc2ccc3nsnc3c2)nc1` [Compound 62], which IC50 is on record?
The IC50 was > 10 µM.

With `O=C(Nc1ccc(F)c(C(=O)O)c1)c1ccc(SCc2ccccc2B(O)O)nc1` [Compound 166] as the compound, how does the IC50 read?
The IC50 was > 10 µM.

With `O=C(Nc1ccc(F)cc1)c1ccc(SCC(=O)c2cccc3c2OCCCO3)nc1` [Compound 143] as the compound, how does the IC50 read?
The IC50 was > 10 µM.

Which IC50 does the source give for `O=C(Nc1ccc(F)cc1)c1ccc(SCCOc2cccc3c2OCCO3)nc1` [Compound 52] here?
The IC50 was 1.58 µM.

Which IC50 does the source give for `Cc1n[nH]c(C)c1CCSc1ccc(C(=O)Nc2ccc(F)cc2)cn1` [Compound 47] here?
Its IC50 is > 5 µM.

For `CC1(C)C2CC3OB(c4ccccc4CSc4ccc(C(=O)Nc5ccc(F)cc5)cn4)OC3(C)C1C2` (stereo not shown) [Compound 17], which IC50 is on record?
Its IC50 is 0.059 ± 0.029 µM.

Which IC50 does the source give for `O=C(Nc1ccc(F)cc1)c1ccc(SCc2cc3ccccc3n2S(=O)(=O)c2ccccc2)nc1` [Compound 79] here?
The IC50 was > 5 µM.

`CC(=O)Oc1ccc(OC(F)(F)F)cc1CSc1ccc(C(=O)Nc2ccc(F)cc2)cn1` [Compound 14a] was tested. Which IC50 did it give?
Its IC50 is 1.06 ± 0.27 µM.

For `O=C(CSc1ccc(C(=O)Nc2ccc(F)cc2)cn1)c1ccc(C(F)(F)F)cc1` [Compound 86], which IC50 is on record?
Its IC50 is > 10 µM.

`O=C(c1ccc(SCc2ccccc2B(O)O)nc1)N(Cc1ccncc1)c1ccc(F)cc1` [Compound 157] was tested. Which IC50 did it give?
Its IC50 is 0.89 ± 0.67 µM.

`O=C(CSc1ccc(C(=O)Nc2ccc(F)cc2)cn1)c1ccc(-c2cccs2)cc1` [Compound 98] was tested. Which IC50 did it give?
Its IC50 is > 10 µM.

`O=C(Nc1ccc(F)cc1)c1ccc(SCC(=O)c2cc(-c3ccc(Cl)cc3Cl)no2)nc1` [Compound 136] was tested. Which IC50 did it give?
Its IC50 is > 5 µM.

`O=C(O)c1cccc(CSc2ccc(C(=O)Nc3ccc(F)cc3)cn2)c1` [Compound 25] was tested. Which IC50 did it give?
The IC50 was 2.12 ± 0.74 µM.

`Cc1nc(-c2ccc(CSc3ccc(C(=O)Nc4ccc(F)cc4)cn3)cc2)cs1` [Compound 36] was tested. Which IC50 did it give?
Its IC50 is > 10 µM.

Which IC50 does the source give for `CN(C(=O)c1ccc(SCc2ccccc2B(O)O)nc1)c1ccc(F)cc1` [Compound 154] here?
The IC50 was > 5 µM.

For `O=C(CSc1ccc(C(=O)Nc2ccc(F)cc2)cn1)c1cccc(Cl)c1` [Compound 90], which IC50 is on record?
The IC50 was 0.21 ± 0.19 µM.

For `O=C(CSc1ccc(C(=O)Nc2ccc(F)cc2)cn1)c1ccc(Cl)c([N+](=O)[O-])c1` [Compound 94], which IC50 is on record?
Its IC50 is 0.016 µM.

`O=C(Nc1ccc(F)cc1)c1ccc(SCC(=O)c2cccc3c2OCCO3)nc1` [Compound 141] was tested. Which IC50 did it give?
Its IC50 is > 5 µM.

With `COc1ccc(C(=O)CSc2ccc(C(=O)Nc3ccc(F)cc3)cn2)cc1` [Compound 100] as the compound, how does the IC50 read?
The IC50 was > 10 µM.

For `O=C(Nc1ccc(F)cc1)c1ccc(SCC(=O)c2cc(-c3ccc(Cl)c(Cl)c3)no2)nc1` [Compound 135], which IC50 is on record?
The IC50 was > 10 µM.

`O=C(Nc1ccc(F)cc1)c1ccc(SCC(=O)c2cccs2)nc1` [Compound 122] was tested. Which IC50 did it give?
The IC50 was > 5 µM.

`Cc1nc(-c2cccc(CSc3ccc(C(=O)Nc4ccc(F)cc4)cn3)c2)cs1` [Compound 37] was tested. Which IC50 did it give?
Its IC50 is > 5 µM.

With `O=C(Nc1ccc(F)cc1)c1ccc(SCc2ccc(C(F)(F)F)o2)nc1` [Compound 74] as the compound, how does the IC50 read?
The IC50 was > 5 µM.

For `O=C(CSc1ccc(C(=O)Nc2ccc(F)cc2)cn1)c1ccc(Br)cc1` [Compound 88], which IC50 is on record?
The IC50 was > 10 µM.

With `O=C(CSc1ccc(C(=O)Nc2ccc(F)cc2)cn1)c1ccc(N2CCOCC2)cc1` [Compound 99] as the compound, how does the IC50 read?
The IC50 was > 5 µM.

Which IC50 does the source give for `COC(=O)c1ccc(CSc2ccc(C(=O)Nc3ccc(F)cc3)cn2)cc1` [Compound 23] here?
The IC50 was > 10 µM.

Which IC50 does the source give for `Cc1c(C(=O)CSc2ccc(C(=O)Nc3ccc(F)cc3)cn2)cnn1-c1ccccc1` [Compound 150] here?
The IC50 was > 10 µM.

With `O=C(CSc1ccc(C(=O)Nc2ccc(F)cc2)cn1)c1cccc(C(F)(F)F)c1` [Compound 109] as the compound, how does the IC50 read?
Its IC50 is > 10 µM.

With `CC1(C)OB(c2ccc(F)cc2CSc2ccc(C(=O)Nc3ccc(F)cc3)cn2)OC1(C)C` [Compound 18] as the compound, how does the IC50 read?
The IC50 was 1.23 ± 0.12 µM.

How did the IC50 turn out when `O=C(Nc1ccc(OC(F)(F)F)cc1)c1ccc(SCc2ccccc2B(O)O)nc1` [Compound 159] was run?
The IC50 was 0.278 ± 0.148 µM.

For `O=C(CSc1ccc(C(=O)Nc2ccc(F)cc2)cn1)c1cccnc1` [Compound 114], which IC50 is on record?
The IC50 was > 5 µM.

With `O=C(Nc1ccc(F)cc1)c1ccc(SCCCCN2C(=O)c3ccc([N+](=O)[O-])cc3C2=O)nc1` [Compound 59] as the compound, how does the IC50 read?
The IC50 was > 10 µM.

With `O=C(Nc1ccc(F)cc1O)c1ccc(SCc2ccccc2B(O)O)nc1` [Compound 165] as the compound, how does the IC50 read?
Its IC50 is 0.037 ± 0.007 µM.

`O=C(CSc1ccc(C(=O)Nc2ccc(F)cc2)cn1)c1cccc(Br)c1` [Compound 89] was tested. Which IC50 did it give?
Its IC50 is 0.852 ± 0.292 µM.

`Cc1ccc2sc(C(=O)CSc3ccc(C(=O)Nc4ccc(F)cc4)cn3)c(C)c2c1` [Compound 130] was tested. Which IC50 did it give?
The IC50 was > 10 µM.

How did the IC50 turn out when `O=C(Nc1ccc(F)cc1)c1ccc(SCc2ccncc2)nc1` [Compound 43] was run?
Its IC50 is > 5 µM.

For `O=C(CSc1ccc(C(=O)Nc2ccc(F)cc2)cn1)c1cc(C(F)(F)F)cc(C(F)(F)F)c1` [Compound 110], which IC50 is on record?
Its IC50 is > 10 µM.

How did the IC50 turn out when `O=C(Nc1ccc(F)cc1)c1ccc(SCC(=O)c2ccc(-c3ccccn3)s2)nc1` [Compound 124] was run?
The IC50 was > 10 µM.

`O=C(Nc1ccc(F)cc1)c1ccc(SCC(=O)C(c2ccccc2)c2ccccc2)nc1` [Compound 153] was tested. Which IC50 did it give?
Its IC50 is 1.23 µM.

For `CC(C)(C)c1cc(C(=O)CSc2ccc(C(=O)Nc3ccc(F)cc3)cn2)cc(C(C)(C)C)c1O` [Compound 96], which IC50 is on record?
The IC50 was > 10 µM.

With `O=C(CSc1ccc(C(=O)Nc2ccc(F)cc2)cn1)c1ccc(-c2nn[nH]n2)cc1` [Compound 104] as the compound, how does the IC50 read?
The IC50 was 1.15 ± 0.47 µM.

With `O=C(Nc1ccc(F)cc1)c1ccc(SCC(=O)c2cc3ccc(Br)cc3o2)nc1` [Compound 119] as the compound, how does the IC50 read?
Its IC50 is 0.981 ± 0.29 µM.

For `O=C(Nc1ccc(F)cc1)c1ccc(SCc2cccc3nonc23)nc1` [Compound 66], which IC50 is on record?
The IC50 was > 5 µM.

For `O=C(Nc1ccc(F)cc1)c1ccc(SCc2nccc3ccccc23)nc1` [Compound 54], which IC50 is on record?
Its IC50 is > 5 µM.

For `O=C(Nc1ccc(F)cc1)c1ccc(SCc2ccc(-c3ccsc3)cc2)nc1` [Compound 29], which IC50 is on record?
Its IC50 is > 10 µM.

For `O=C(Nc1ccc(F)cc1)c1ccc(SCc2csc3ccc(Cl)cc23)nc1` [Compound 69], which IC50 is on record?
Its IC50 is > 10 µM.

With `O=C(Nc1ccc(F)cc1)c1ccc(SCS(=O)(=O)c2ccccc2)nc1` [Compound 83] as the compound, how does the IC50 read?
The IC50 was > 5 µM.

How did the IC50 turn out when `Cc1nc(-c2ccccc2)sc1C(=O)CSc1ccc(C(=O)Nc2ccc(F)cc2)cn1` [Compound 146] was run?
The IC50 was > 10 µM.

For `O=C(CSc1ccc(C(=O)Nc2ccc(F)cc2)cn1)c1ccc2sccc2c1` [Compound 125], which IC50 is on record?
Its IC50 is > 10 µM.

`N#Cc1ccc(C(=O)CSc2ccc(C(=O)Nc3ccc(F)cc3)cn2)cc1` [Compound 102] was tested. Which IC50 did it give?
The IC50 was > 10 µM.

Same assay, conditions: read-out: IC50

How did the IC50 turn out when `O=C(O)c1ccc(NC(=O)c2ccc(SCc3ccccc3B(O)O)nc2)cc1` [Compound 160] was run?
The IC50 was > 10 µM.
